Legend:
5-Lipoxygenase = molecular target: T1, 5-Lipoxygenase (Homo sapiens, UniProt P09917); assay: Inhibition of 5-Lipoxygenase in Human Whole Blood (LTB4, calcium ionophore A23187); format: cell-based; settings: 1 μM
T1 construct: from tissue; host or cells: whole blood of male human donors (endogenous enzyme of the leukocytes)
T1 sequence (P09917 1-674): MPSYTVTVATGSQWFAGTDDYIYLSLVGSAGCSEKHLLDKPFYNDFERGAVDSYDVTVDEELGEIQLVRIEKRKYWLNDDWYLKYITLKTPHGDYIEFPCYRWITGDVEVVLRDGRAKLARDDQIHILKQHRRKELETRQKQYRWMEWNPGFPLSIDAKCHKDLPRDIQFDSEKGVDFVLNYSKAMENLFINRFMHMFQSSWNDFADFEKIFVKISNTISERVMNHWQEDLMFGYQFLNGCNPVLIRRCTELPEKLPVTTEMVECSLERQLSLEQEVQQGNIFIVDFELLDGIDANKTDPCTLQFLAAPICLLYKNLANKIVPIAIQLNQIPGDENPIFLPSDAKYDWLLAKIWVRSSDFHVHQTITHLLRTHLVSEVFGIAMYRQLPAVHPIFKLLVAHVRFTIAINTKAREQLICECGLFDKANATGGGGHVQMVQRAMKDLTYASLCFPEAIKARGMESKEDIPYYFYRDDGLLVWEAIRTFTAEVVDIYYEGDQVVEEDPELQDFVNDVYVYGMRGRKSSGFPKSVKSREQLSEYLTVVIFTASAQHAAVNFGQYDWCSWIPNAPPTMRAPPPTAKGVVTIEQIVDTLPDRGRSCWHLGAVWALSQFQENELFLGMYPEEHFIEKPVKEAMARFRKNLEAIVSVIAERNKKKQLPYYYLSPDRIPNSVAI
Method: 1. Inhibition of 5-Lipoxygenase in Human Whole Blood
Blood is obtained in 50-100 ml quantities from male donors. White blood cell counts and differentials are made. Two ml of blood are placed in a 15 ml polypropylene test tube. Test compounds are solubilized in dimethylsulfoxide and diluted in 1:10 in 10% bovine serum albumin in phosphate buffered saline, pH 7.4 resulting in a final dimethylsulfoxide concentration of 0.1% in the blood. Then, solutions of test compounds are added to the blood in a shaking water bath at 37° C. for 10 minutes prior to the addition of 30 μM calcium ionophore (A23187, Sigma). After ionophore administration, whole blood samples are mixed and incubated for 20 minutes at 37° C. in a shaking water bath. Incubation is terminated by placing samples in an ice bath and immediately adding ethylene glycol-bis-(β-aminoethyl ether)-N, N,N',N'-tetraacetic acid (10 mM). Samples are mixed and centrifuged at 1200× g for 15 minutes at 4° C. Preparation of samples for evaluation by RIA or ELISA is carried out by the following protocol. Plasma is removed from sample tubes, placed in 15 ml polypropylene test tubes containing 8 ml methanol, and then vortexed to precipitate protein. Samples are stored at -70° C. overnight. The next day, samples are centrifuged at 200× g for 15 minutes at 4° C. to pellet the precipitate. Samples are dried in a Savant SpeedVac Concentrator, Model SVC 200H, reconstituted to original volume with ice cold RIA or ELISA buffer, and stored at -70° C. until assayed. The assay for eicosanoids (LTB4, T×B2, and PGE2) is performed as described by the manufacturer of the ^3 H!-RIA kit or ELISA kit (LTB4 -Amersham, T×B2 and PGE2 -Caymen Chemical).
The total eicosanoid level in 2 ml of blood is calculated and reported as ng/10^6 neutrophils. Significance is determined by a one-way analysis of variance with least significant difference (LSD) comparisons to control (p≤0.05) and IC50 's (μM) are determined by regression analysis (Finney, 1978). Drug effects are expressed as percent change from control values.

[1] = tested on: LT-dependent bronchoconstriction; assay: Inhibition of Bronchoconstriction in Guinea Pigs Induced by Exogenously Administered Antigen (ovalbumin); format: in vivo, Male guinea pigs; settings: Cavia porcellus, 5 min; for inhibition in vivo at 10 mg/kg: iv
Method: 4. Inhibition of Brochoconstriction in Guinea Pigs Induced by Exogenously Administered Antigen
Male guinea pigs (Charles River, Wilmington, Mass.) were sensitized 3-4 weeks prior to antigen challenge by administration of 2 i.m. injections of ovalbumin, 1 into each hind limb (35 mg total). Sensitized animals (500-600 g) were fasted overnight prior to experimentation. Conscious animals were then dosed p.o. with drug or vehicle alone (0.5% Tween 80 in H2 O) at the indicated times prior to antigen challenge, or anesthetized animals were dosed i.v. with drug or vehicle alone (DMSO) 5 min prior to antigen challenge. Animals were anesthetized by urethane (2.8 g/kg i.p.). A carotid artery and jugular vein were cannulated to allow for the monitoring of blood pressure and the administration of drugs, respectively. The trachea was then cannulated and connected to a Harvard Apparatus rodent ventilator (S. Natick, Mass). Spontaneous respiration was abolished by the administration of succinylcholine (2.5 mg/kg i.v.). The animals were then ventilated with room air at a rate of 65 breaths per min. Airway inflation pressure was measured using a Statham pressure transducer (Gould Instruments, Cleveland, Ohio) connected to the tracheal cannula via a side-arm and recorded on a Grass Instruments recorder (Quincy, Mass). The tidal volume (approximately 10 cc/kg) was adjusted to give a baseline inflation pressure of 8-10 cm H2 O at end inspiration. Animals were then allowed 20 min to stabilize.
Following the stabilization period, animals were given i.v. injections of pyrilamine (5 mg/kg), propranolol (0.1 mg/kg) and indomethacin (10 mg/kg) at 15, 10 and 5 min, respectively, prior to antigen challenge. This pretreatment results in an LT-dependent bronchoconstriction following antigen challenge, which was accomplished by i.v. administration of ovalbumin (10 mg/kg). Only one bronchoconstriction per animal was induced. End-inspiratory inflation pressure (in cm H2 O over baseline) was measured at 5 min post-antigen challenge. A mean value and standard error for the % inhibition of control bronchoconstriction in each drug-treated group was then calculated.

Cc1oc(-c2ccccc2)nc1COc1ccc(CN(O)C(N)=O)cc1 [Example 1, 1-Hydroxy-1-4-(5-methyl-2-phenyl-oxazol-4-ylmethoxy)-benzyl!-urea]
inhibition at 1 µM (5-Lipoxygenase): 50%
inhibition in vivo at 10 mg/kg [1]: 38%

Cc1oc(-c2ccc(C(F)(F)F)cc2)nc1COc1ccc(CN(O)C(N)=O)cc1 [Example 6, 1-Hydroxy-1-4-5-methyl-2-(4-trifluoromethyl-phenyl)-oxazol-4-ylmethoxy!-benzyl!-urea]
inhibition at 1 µM (5-Lipoxygenase): 34%
inhibition in vivo at 10 mg/kg [1]: 27%
inhibition in vivo at 25 mg/kg ([1]; po): 27%

NC(=O)N(O)Cc1ccc(OCc2coc(-c3ccccc3)n2)cc1 [Example 9, 1-Hydroxy-1-4-(2-phenyl-oxazol-4-ylmethoxy)-benzyl!-urea]
inhibition at 1 µM (5-Lipoxygenase): 58%
inhibition in vivo at 10 mg/kg [1]: 54%
inhibition in vivo at 50 mg/kg ([1]; po, 50 mg/kg): 44%

NC(=O)N(O)Cc1ccc(OCc2csc(-c3ccccc3)n2)cc1 [Example 10, 1-Hydroxy-1-4-(2-phenyl-thiazol-4-ylmethoxy)-benzyl!-urea]
inhibition at 1 µM (5-Lipoxygenase): 44%
inhibition in vivo at 10 mg/kg [1]: 50%
inhibition in vivo at 25 mg/kg ([1]; po): 24%

Reference: US5504097A, “N-hydroxyureas as 5-lipoxygenase inhibitors and inhibitors of oxidative modification of low density lipoprotein” (American Home Products Corporation, priority 1995, dated 1996)
